What was measured:
M1R–M5R = settings: read-out: Ki (M1R–M4R); range over M1R–M4R; cited from earlier work
M2R = target: T1, M2R (Homo sapiens, UniProt P08172); test: Equilibrium competition binding with [^3H]64 at CHO-hM2R cell homogenates
T1 sequence (P08172 1-466): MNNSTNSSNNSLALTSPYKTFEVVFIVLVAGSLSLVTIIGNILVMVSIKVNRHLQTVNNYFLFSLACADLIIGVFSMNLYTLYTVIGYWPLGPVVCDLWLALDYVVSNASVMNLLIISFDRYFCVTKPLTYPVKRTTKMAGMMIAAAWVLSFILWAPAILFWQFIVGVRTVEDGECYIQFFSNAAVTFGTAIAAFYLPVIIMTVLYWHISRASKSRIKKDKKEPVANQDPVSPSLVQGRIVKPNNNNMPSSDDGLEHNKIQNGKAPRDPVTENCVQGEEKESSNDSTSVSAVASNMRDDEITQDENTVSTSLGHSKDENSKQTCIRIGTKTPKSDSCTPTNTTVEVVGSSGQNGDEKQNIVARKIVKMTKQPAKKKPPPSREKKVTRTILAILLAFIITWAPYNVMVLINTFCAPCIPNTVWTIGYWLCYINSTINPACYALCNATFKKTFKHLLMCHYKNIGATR

displacement of [^3H]64 from the M2R-specific binding sites (M2R) | Compound | Ki (M1R–M5R)
 | CC(C)[N+](C)(CCOC(=O)C1c2ccccc2Oc2ccccc21)C(C)C [Compound 4, propantheline] | 57 to 330 pM
completely displaced | CCCCCCOc1nsnc1C1=CCCN(C)C1 [Compound 1, xanomeline] | 

Reference: PMC6044897 (ACS Omega, 2017)
